PMC7251097, “Aspartate/asparagine-β-hydroxylase: a high-throughput mass spectrometric assay for discovery of small molecule inhibitors” (Scientific Reports, 2020)
Counter-ions that a name gives are not always drawn. Like-named read-outs stand apart in the source and are kept apart here.

Biological target: T1, His6-AspH315–758 (human aspartate/asparagine-β-hydroxylase, AspH) (Homo sapiens, UniProt Q12797)
T1 construct: N-Terminally His6-tagged human AspH315–758 (His6-AspH315–758) was produced in E. coli BL21 (DE3) cells; made in house; host or cells: E. coli BL21 (DE3), pET-28a(+) vector
T1 sequence (Q12797 315-758): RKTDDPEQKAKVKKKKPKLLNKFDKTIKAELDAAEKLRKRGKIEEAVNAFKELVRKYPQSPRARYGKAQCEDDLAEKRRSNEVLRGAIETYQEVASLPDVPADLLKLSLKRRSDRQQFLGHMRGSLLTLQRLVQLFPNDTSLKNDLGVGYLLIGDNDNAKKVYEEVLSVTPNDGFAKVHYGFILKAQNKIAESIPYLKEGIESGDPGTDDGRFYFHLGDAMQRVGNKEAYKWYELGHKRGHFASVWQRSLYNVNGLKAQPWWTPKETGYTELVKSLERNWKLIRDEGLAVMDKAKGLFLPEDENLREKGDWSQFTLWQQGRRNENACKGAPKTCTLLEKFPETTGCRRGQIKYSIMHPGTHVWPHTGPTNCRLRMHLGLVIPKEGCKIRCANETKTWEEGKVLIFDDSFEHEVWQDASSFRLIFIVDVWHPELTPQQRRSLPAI
Assay: SPE-MS AspH inhibition assay (LOPAC screen at fixed 20 μM and IC50 dose-response), hydroxylation of cyclic peptide hFX-CP101–119
Type: biochemical

[1] = LOPAC compound at fixed 20 uM, plate 1, normalised to DMSO and 2,4-PDCA controls
[2] = LOPAC compound at fixed 20 uM, substrate conversion, plate 1
[3] = LOPAC compound at 20uM, plate 2, conversion of substrate peptide
[4] = LOPAC compound at 20uM, plate 2, normalised to DMSO and 2,4-PDCA controls
[5] = LOPAC Plate 4, compound at 20 uM
[6] = LOPAC Plate 4, compound at 20 uM, substrate conversion
[7] = LOPAC compound at 20uM, plate 3, conversion of substrate peptide

## Nc1ncn([C@@H]2O[C@H](CO)[C@@H](O)[C@H]2O)c(=O)n1 [5-azacytidine]
[1]
  Plate 1 (% inhibition): 7.60%
[2]
  Plate 1 (% conversion): 33.32%

## C[C@H]1O[C@@H](n2cc(F)c(=O)[nH]c2=O)[C@H](O)[C@@H]1O [5-fluoro-5-deoxyuridine]
[3]
  Plate 2 (% conversion): 36.33%
[4]
  Plate 2 (% inhibition): -1.12%

## CCCCCC(O)CCCC(=O)O.[Na] (centres unmarked) [5-hydroxydecanoic acid sodium]
[3]
  Plate 2 (% conversion): 36.96%
[4]
  Plate 2 (% inhibition): -3.01%

## CC(C)c1cccc(C(C)C)c1N1C(=O)c2ccc(O)cc2C1=O [5HPP-33]
  % conversion: 25.79%

## CC(=O)[C@H]1CC[C@H]2[C@@H]3CC[C@H]4C[C@H](O)CC[C@]4(C)[C@H]3C(=O)C[C@]12C [5alpha-Pregnan-3alpha-ol-11,20-dione]
  Plate 3 (% conversion): 35.35%

## CC(=O)[C@H]1CC[C@H]2[C@@H]3CC[C@H]4C[C@H](O)CC[C@]4(C)[C@H]3CC[C@]12C [5alpha-Pregnan-3alpha-ol-20-one]
  % conversion: 26.94%

## O=c1[nH]c2ccccc2c2ccccc12 [6(5H)-Phenanthridinone]
[5]
  % inhibition: -0.0747%
[6]
  % conversion: 36.50%

## NCCCCCC(=O)O [6-Aminohexanoic acid]
[1]
  Plate 1 (% inhibition): -0.76%
[2]
  Plate 1 (% conversion): 36.13%

## COc1cc2c(CCNC(C)=O)c[nH]c2cc1O [6-Hydroxymelatonin]
[3]
  Plate 2 (% conversion): 36.89%
[4]
  Plate 2 (% inhibition): -2.79%

## CCCCCCCCCCC/C=C\C(C)(C)/C=C\CCCC(=O)O [7,7-Dimethyl-(5Z,8Z)-eicosadienoic acid]
[3]
  Plate 2 (% conversion): 5.42%
[4]
  Plate 2 (% inhibition): 91.20%

## O.O=c1cc(-c2ccccc2)oc2c(O)c(O)ccc12 [7,8-Dihydroxyflavone hydrate, reference compound]
  % conversion: 2.70%
  inhibition at 20 µM: 99%
read-out: Inhibition at 20 µM [%]
  inhibition at 20 µM: 99%

## O=[N+]([O-])c1cccc2cn[nH]c12 [7-Nitroindazole]
[7]
  Plate 3 (% conversion): 35.80%

## Cn1c(=O)c2c(nc(C=Cc3cccc(Cl)c3)n2C)n(C)c1=O [8-(3-Chlorostyryl)caffeine]
  Plate 2 (% conversion): 38.57%
20 µM
  Plate 2 (% inhibition): -7.82%

## Cn1c(=O)c2[nH]c(-c3ccc(S(=O)(=O)O)cc3)nc2n(C)c1=O [8-(p-Sulfophenyl)theophylline]
[1]
  Plate 1 (% inhibition): 51.62%
[2]
  Plate 1 (% conversion): 18.54%

## Nc1nc2c(nc(Br)n2[C@@H]2O[C@@H]3COP(=O)([O-])O[C@H]3[C@H]2O)c(=O)[nH]1.[Na+] [8-Bromo-cGMP sodium]
[1]
  Plate 1 (% inhibition): 5.25%
[2]
  Plate 1 (% conversion): 34.11%

## Cn1c(=O)c2[nH]c(C3CCCC3)nc2n(C)c1=O [8-Cyclopentyl-1,3-dimethylxanthine]
[3]
  Plate 2 (% conversion): 36.70%
[4]
  Plate 2 (% inhibition): -2.21%

## CCCn1c(=O)c2[nH]c(C3CCCC3)nc2n(CCC)c1=O [8-Cyclopentyl-1,3-dipropylxanthine]
  Plate 2 (% conversion): 38.65%
20 µM
  Plate 2 (% inhibition): -8.06%

## Nc1ncnc2c1ncn2C1CCCC1 [9-cyclopentyladenine]
[1]
  Plate 1 (% inhibition): 2.94%
[2]
  Plate 1 (% conversion): 34.88%

## CC1=C(/C=C/C(C)=C/C=C/C(C)=C\C(=O)O)C(C)(C)CCC1 [13-cis-retinoic acid]
[6]
  % conversion: 23.26%

## N[C@H](C(=O)O)[C@H]1C[C@@H]1C(=O)O [(2S,1S,2S)-2-(carboxycyclopropyl)glycine]
[3]
  Plate 2 (% conversion): 32.34%
[4]
  Plate 2 (% inhibition): 10.80%

## CC(C)C[C@H]1C(=O)N2CCC[C@H]2[C@]2(O)O[C@](NC(=O)[C@@H]3C=C4c5cccc6[nH]c(Br)c(c56)C[C@H]4N(C)C3)(C(C)C)C(=O)N12.CS(=O)(=O)O [(+)-Bromocriptine methanesulfonate]
  Plate 1 (% conversion): 29.77%
  Plate 1 (% inhibition): 18.18%

## CN(C)CC[C@@H](c1ccc(Br)cc1)c1ccccn1 [(+)-Brompheniramine maleate]
[1]
  Plate 1 (% inhibition): 1.01%
[2]
  Plate 1 (% conversion): 35.53%

## CN(C)CC[C@@H](c1ccc(Cl)cc1)c1ccccn1 [(+)-Chlorpheniramine maleate]
[1]
  Plate 1 (% inhibition): -13.88%
[2]
  Plate 1 (% conversion): 40.53%

## N[C@@H](Cn1oc(=O)[nH]c1=O)C(=O)O [(+)-Quisqualic acid]
  % conversion: 34.23%

## CN1C(=O)CC[C@H]1c1cccnc1 [(-)-Cotinine]
  Plate 1 (% conversion): 36.85%
  Plate 1 (% inhibition): -2.91%

## CN1CC[C@@]2(C)c3cc(O)ccc3N(C)[C@@H]12.O=C(O)/C=C/C(=O)O [(-)-Eseroline fumarate]
  Plate 2 (% conversion): 19.71%
20 µM
  Plate 2 (% inhibition): 48.52%

## C[C@@]12N[C@@H](Cc3ccccc31)c1ccccc12.O=C(O)/C=C\C(=O)O [(-)-MK-801 hydrogen maleate]
  Plate 3 (% conversion): 36.17%

## C=C(C)[C@H]1CC=C(C(=O)O)CC1 [(-)-Perillic acid]
[6]
  % conversion: 29.82%

## C[N+]1(C)[C@@H]2C[C@@H](OC(=O)[C@H](CO)c3ccccc3)C[C@H]1[C@@H]1O[C@@H]12 [(-)-Scopolamine methyl bromide]
  % conversion: 37.79%

## CCN1CCC[C@H]1CNC(=O)c1cc(S(N)(=O)=O)ccc1OC [(-)-Sulpiride]
[6]
  % conversion: 32.10%

## Cl.c1ccc([C@H]2CN3CCSC3=N2)cc1 [(-)-Tetramisole hydrochloride]
  Plate 3 (% conversion): 32.10%

## NC/C=C/C(=O)O [(E)-4-amino-2-butenoic acid]
[5]
  % inhibition: 0.14%
[6]
  % conversion: 36.42%

## C[C@](N)(CCP(=O)(O)O)C(=O)O.Cl [(S)-MAP4 hydrochloride]
[7]
  Plate 3 (% conversion): 32.97%

## CC(C)NC[C@H](O)COc1cccc2ccccc12 [(S)-Propranolol hydrochloride]
[6]
  % conversion: 27.07%

## Cl.NCCNS(=O)(=O)c1cccc2c(Cl)cccc12 [A3 hydrochloride]
  % conversion: 25.50%

## Cl.NC[C@@H]1O[C@H](c2ccccc2)Cc2c1ccc(O)c2O [A-68930 hydrochloride]
[5]
  % inhibition: 78.36%
[6]
  % conversion: 9.73%

## Cl.NC[C@@H]1O[C@H](C23CC4CC(CC(C4)C2)C3)Cc2c1ccc(O)c2O [A-77636 hydrochloride]
  Plate 1 (% conversion): 15.05%
  Plate 1 (% inhibition): 62.00%

## CCS(=O)(=O)Nc1cccc(C(=C2CCCCC2)c2cnc[nH]2)c1 [A-315456]
  Plate 1 (% conversion): 40.98%
  Plate 1 (% inhibition): -15.20%

## CC1=C(C)C(=O)C(CCCCC#CCCCC#CCO)=C(C)C1=O [AA-861]
[1]
  Plate 1 (% inhibition): -23.70%
[2]
  Plate 1 (% conversion): 43.83%

## CNC(=O)[C@H]1O[C@@H](n2cnc3c(NCc4ccc(N)cc4)ncnc32)[C@H](O)[C@@H]1O [AB-MECA]
[1]
  Plate 1 (% inhibition): -6.25%
[2]
  Plate 1 (% conversion): 37.97%

## Cc1cc([C@@H]2CCCN2C)on1.Cl [ABT-418 hydrochloride]
  Plate 1 (% conversion): 35.68%
  Plate 1 (% inhibition): 0.56%

## CCCCCCCCc1ccc(-c2ccc(C(=O)O)cc2)cc1 [AC-55649]
  % conversion: 33.36%
20 µM
  % inhibition: 9.11%

## CC[n+]1c(/C=C/C=C2/N(C)c3ccccc3C2(C)C)sc2ccccc21.[I-] [AC-93253 iodide]
  Plate 2 (% conversion): 41.62%
[4]
  Plate 2 (% inhibition): -16.93%

## NS(=O)(=O)c1nn2cc(-c3ccccc3)nc2s1 [AEG 3482]
  Plate 3 (% conversion): 35.73%

## N#C/C(=C\c1ccc(-c2cc(Cl)ccc2Cl)o1)C(=O)Nc1cccc2ncccc12 [AGK2]
[6]
  % conversion: 36.60%

## NC1(C(=O)O)CCc2cc(C(=O)O)ccc21 (centres unmarked) [AIDA]
[1]
  Plate 1 (% inhibition): 3.11%
[2]
  Plate 1 (% conversion): 34.83%

## CC(C)(C)c1ccc(/C=C/C(=O)Nc2ccc3c(c2)OCCO3)cc1 [AMG 9810]
[5]
  % inhibition: 5.34%
[6]
  % conversion: 34.65%

## O=C(Nc1ccccc1C(=O)NC1CCCCNC1=O)c1cc2ccccc2s1 (centres unmarked) [ANA-12]
[6]
  % conversion: 32.70%

## CCN(CC)c1ncnc2c1ncn2[C@@H]1O[C@H](COP(=O)([O-])OP(=O)([O-])C(Br)(Br)P(=O)([O-])O)[C@@H](O)[C@H]1O.[Na+].[Na+].[Na+] [ARL 67156 trisodium salt]
[1]
  Plate 1 (% inhibition): 82.09%
[2]
  Plate 1 (% conversion): 8.30%

## O=C(N/N=C/c1c(O)ccc2ccccc12)c1ccncc1 [AS-8351, reference compound]
50 nM His6-AspH315–758, 1.0 μM hFX-CP101–119, 3 μM 2OG, 2 μM Fe(II), 50 mM HEPES pH 7.5, 20 °C, mean ± SD, n = 2 (2,4-PDCA n = 10), read-out: IC50
  IC50: 3.07 ± 0.43 µM

## O=C1NC(=O)/C(=C/c2ccc(-c3ccc(F)cc3O)o2)S1 [AS-252424]
[1]
  Plate 1 (% inhibition): -9.30%
[2]
  Plate 1 (% conversion): 39.00%

## CC(C)(C)c1o[nH]c(=O)c1CC(N)C(=O)O (centres unmarked) [ATPA]
  Plate 1 (% conversion): 36.48%
  Plate 1 (% inhibition): -1.82%

## CC(=O)c1ccc2c(c1)N(CCCN(C)C)c1ccccc1S2 [Acepromazine maleate]
[6]
  % conversion: 29.56%

## CC(N)=O [Acetamide]
[1]
  Plate 1 (% inhibition): 0.92%
[2]
  Plate 1 (% conversion): 35.56%

## CC(=O)Nc1nnc(S(N)(=O)=O)s1 [Acetazolamide]
[1]
  Plate 1 (% inhibition): 9.71%
[2]
  Plate 1 (% conversion): 32.61%
